Patent publication US20110081293A1, “METHODS AND COMPOSITIONS RELATED TO CLOT-BINDING LIPID COMPOUNDS” (SANFORD-BURNHAM MEDICAL RESEARCH INSTITUTE, priority 2009, published 2011)
No end group written: not given here. fluorescent dye = not defined here

Assays:
[1] = system: B16F1 melanomas; assay: CREKA peptide homing in fibrinogen null mice and normal littermates; type: in vivo
Protocol: (§1) Phage screening, tumors and peptides. In vivo screening of a peptide library with the general structure of CX7C (SEQ ID NO: 4), where C is cysteine and X is any amino acid, was carried out as described (Oh 2004) using 65- to 75-day-old transgenic MMTV PyMT mice (Hutchinson 2000). These mice express the polyoma virus middle T antigen (MT) under the transcriptional control of the mouse mammary tumor virus (MMTV), leading to the induction of multi-focal mammary tumors in 100% of carriers. MDA-MB-435 tumors in nude mice and peptide synthesis have been described (Laakkonen 2002; Laakkonen 2004). B16F1 murine melanoma tumors were grown in fibrinogen null mice (Suh 1995) and their normal littermates and used when they reached 0.5-1 cm in size (Pilch 2006).

[2] = system: MDA-MB-435 human breast cancer xenografts; assay: Tumor homing of intravenously injected fluorescent CREKA peptide; type: in vivo, mice
Protocol: as §1

[3] = system: PyMT tumors; assay: as above; type: in vivo, mice; conditions: minutes to hours after the injection
Protocol: as §1

[4] = system: MDA-MB-435 tumor; assay: Whole animal imaging of Alexa Fluor 647-labeled CREKA; type: in vivo, mouse; conditions: peptide labeled with Alexa 647
Protocol: (A). Balb/c nude mice bearing MDA-MB-435 human breast cancer xenograft tumors or transgenic MMTV PyMT mice with breast tumors were intravenously injected with 0.1 mg of fluorescein-CREKA. The animals were sacrificed by perfusion 24 hours post-injection and tissue sections were examined by fluorescent microscopy. Right panel, control organs of MDA-MB 435 tumor mice. Magnification 200×. (B). Whole animal imaging of MDA-MB-435 tumor mouse injected 6 hours earlier with 30 μg of Alexa Fluor 647-labeled CREKA. Maestro imaging system (Cambridge Research Inc., Woburn, Mass.) was used to acquire and process the image. The arrow points to the tumor and the arrowhead to the urinary bladder.

## cys-arg-glu-lys-ala ({fluorescent dye}-CREKA; reading uncertain; also: dye identity not given here) [CREKA peptide]
[1]; fibrinogen null mice
  accumulation in B16F1 melanomas: failed to accumulate
[1]; normal littermates of the null mice
  accumulation in B16F1 tumors: formed a brightly fluorescent meshwork
[2]; MDA-MB-435 xenografts, minutes to hours after the injection
  detection of intravenously injected peptide in tumors: readily detectable
[2]; normal tissues
  detection of peptide in normal tissues: essentially undetectable
[3]
  detection of intravenously injected peptide in tumors: readily detectable
[4]
  whole body imaging, peptide accumulation: peptide accumulation in the breast cancer xenografts, and in the bladder
